Measurements as given in US20250163051A1, “PYRIMIDO AROMATIC RING COMPOUND AND USE THEREOF IN DRUG” (SUNSHINE LAKE PHARMA CO., LTD., priority 2022, published 2025).
Like-named read-outs stand apart in the source and are kept apart here.

Assays:
[1] = Cell toxicity (Celltiter-Glo) in HEK-Blue hTLR8 cells; conditions: human
Procedure: (§4) Purpose: HEK-Blue™ hTLR7 and HEK-Blue™ hTLR8 cells were used to detect the agonist and cytotoxic activities of compounds against hTLR7 and hTLR8.
(§5) The experimental steps were as shown below: • 1) Preparation of compound: The compound was prepared into a 20 mM stock solution with DMSO, and then the stock solution was diluted 3-fold in a gradient and added to a 96-well plate, for a total of 10 concentrations, with duplicate wells for each concentration. For negative control wells, 0.5 μL DMSO was added to each well. The final DMSO concentration was 0.5%. • 2) HEK-Blue™ hTLR7 or HEK-Blue™ hTLR8 cells were suspended in culture medium and then seeded into 96-well plates containing compounds at a cell count of 50,000 per well. The compounds and cells were incubated for 24 h at 37° C., 5% Co2. • 3) QUANTI-Blue was used for the detection solution: to a mixture of 1 mL of QB reagent and 1 mL of QB buffer was added 98 mL of sterile water, the mixture was mixed and dissolved, and then placed at room temperature for 10 min. • 4) Activity test of the compound: 20 μL of the culture supernatant in step 2) was added to each well of a 96-well plate containing 180 μL of QUANTI-Blue detection solution. After incubation at 37° C. for 1 h, the absorbance at 650 nm (OD650) was detected using a multifunctional microplate reader Flextation III. • 5) Detection of cell activity: The chemiluminescent signal (RLU) was detected using the multifunctional microplate reader Flextation III according to the instructions of Celltiter-Glo. • 6) Data analysis
Detection of cell activity: The calculation formula for cell activity % is as follows.
The cell activity % values were analyzed using GraphPad Prism software, and the compound dose-effect curves were fitted to calculate the CC50 values of the compounds.
Cell activity %=RLU compound/RLU DMSO Control*100%

[2] = tested on: CYP3A4; assay: Induction of CYP3A4 in frozen human hepatocytes; type: in vitro ADME; conditions: 72 h induction, concentration and readout not stated; for CYP3A4 Induction percentage relative to positive control (%): positive control Rifampicin
Procedure: (§1) Experimental purpose: Using frozen human hepatocytes as the test system, the induction effects of the test substances on CYP1A2, CYP2B6 and CYP3A4 were evaluated from two aspects of enzyme activity and mRNA level.
(§2) Experimental method: 24 hours after cell plating, induction was started by adding medium containing the test compound (test concentrations were 10, 1, and 0.1 μM), and fresh drug-containing medium was replaced every 24 hours. After 72 hours of induction, the medium was replaced with medium containing CYP1A2, CYP2B6, and CYP3A4 specific substrates for 30 minutes of incubation. 100 μL was taken for treatment, and the labeled metabolites of the substrates were detected to evaluate the enzyme activity level. Finally, the cells were lysed and reverse transcribed, and the expression levels of CYP1A2, CYP2B6 and CYP3A4 genes in the cells were evaluated by real-time quantitative PCR.
(§3) The induction fold of the test compound compared with the blank control and the induction percentage of the test compound compared with the positive control were used as the basis for evaluating the induction potential of the test compound. Among them, the positive control for CYP1A2 is Omeprazole; the positive control for CYP2B6 is Phenobarbital; the positive control for CYP3A4 is Rifampicin.

[3] = tested on: CYP2B6; assay: Induction of CYP2B6 in frozen human hepatocytes; type: in vitro ADME; conditions: 72 h induction, concentration and readout not stated; for CYP2B6 Induction percentage relative to positive control (%): positive control Phenobarbital
Procedure: as §1, §2, §3

[4] = tested on: CYP1A2; assay: Induction of CYP1A2 in frozen human hepatocytes; type: in vitro ADME; conditions: 72 h induction, concentration and readout not stated
Procedure: as §1, §2, §3

[5] = target: T1, CYP3A4 (Homo sapiens, UniProt P08684); assay: Inhibition of human liver microsomal CYP3A4; type: in vitro ADME; conditions: human liver microsomes, 10 μM test substance
T1 construct: from tissue; host or cells: human liver microsomes
T1 sequence (P08684 whole entry): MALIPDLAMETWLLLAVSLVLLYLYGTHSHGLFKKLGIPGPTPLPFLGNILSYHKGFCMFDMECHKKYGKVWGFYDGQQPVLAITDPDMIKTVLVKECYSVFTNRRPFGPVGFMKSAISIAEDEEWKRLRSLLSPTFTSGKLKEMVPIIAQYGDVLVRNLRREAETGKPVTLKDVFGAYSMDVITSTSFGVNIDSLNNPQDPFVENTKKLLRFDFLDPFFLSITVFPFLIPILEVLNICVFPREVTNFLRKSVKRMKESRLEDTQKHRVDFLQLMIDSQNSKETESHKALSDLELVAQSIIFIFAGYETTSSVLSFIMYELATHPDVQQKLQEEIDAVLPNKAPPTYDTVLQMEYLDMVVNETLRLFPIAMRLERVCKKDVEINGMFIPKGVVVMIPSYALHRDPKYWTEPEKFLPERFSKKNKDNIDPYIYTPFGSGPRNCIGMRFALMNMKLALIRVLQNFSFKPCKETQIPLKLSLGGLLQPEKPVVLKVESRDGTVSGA
Procedure: Experimental purpose: The inhibitory effects of the test compounds on the major metabolizing enzymes CYP1A2, CYP2C19, CYP2D6 and CYP3A4 in microsomes were evaluated using the human liver microsomal system. Experimental method: The test substance was incubated with a suspension of human liver microsomes containing cytochrome P450 enzymes CYP1A2, CYP2C19, CYP2D6 and CYP3A4 at a concentration of 10 μM in the final incubation system. The known substrates were metabolized by the corresponding single enzymes to generate specific metabolites, and the metabolites were determined by UPLC-MS/MS method. The relative inhibition rate (%) was calculated by the percentage reduction of metabolite production by the test compound and solvent DMSO in the same time period. N is the concentration value of the probe substrate metabolite and it is assumed that the […] with or without inhibitor at 0 min is 0. N+inh is the metabolite concentration in the group with inhibitor, and Nveh is the metabolite concentration in the group without inhibitor. The results of the inhibition test of the compounds of the present invention on human liver microsomal CYP enzymes are shown in Table C.

[6] = target: T2, hTLR7 (Homo sapiens, UniProt Q9NYK1); assay: Agonistic activity on human TLR7 in HEK-Blue hTLR7 cells (QUANTI-Blue); type: cell-based; conditions: 24 h incubation, OD650, read-out: hTLR 7 EC50
T2 construct: expressed in transfected cells; host or cells: HEK-Blue hTLR7 cells
T2 sequence (Q9NYK1 27-1049): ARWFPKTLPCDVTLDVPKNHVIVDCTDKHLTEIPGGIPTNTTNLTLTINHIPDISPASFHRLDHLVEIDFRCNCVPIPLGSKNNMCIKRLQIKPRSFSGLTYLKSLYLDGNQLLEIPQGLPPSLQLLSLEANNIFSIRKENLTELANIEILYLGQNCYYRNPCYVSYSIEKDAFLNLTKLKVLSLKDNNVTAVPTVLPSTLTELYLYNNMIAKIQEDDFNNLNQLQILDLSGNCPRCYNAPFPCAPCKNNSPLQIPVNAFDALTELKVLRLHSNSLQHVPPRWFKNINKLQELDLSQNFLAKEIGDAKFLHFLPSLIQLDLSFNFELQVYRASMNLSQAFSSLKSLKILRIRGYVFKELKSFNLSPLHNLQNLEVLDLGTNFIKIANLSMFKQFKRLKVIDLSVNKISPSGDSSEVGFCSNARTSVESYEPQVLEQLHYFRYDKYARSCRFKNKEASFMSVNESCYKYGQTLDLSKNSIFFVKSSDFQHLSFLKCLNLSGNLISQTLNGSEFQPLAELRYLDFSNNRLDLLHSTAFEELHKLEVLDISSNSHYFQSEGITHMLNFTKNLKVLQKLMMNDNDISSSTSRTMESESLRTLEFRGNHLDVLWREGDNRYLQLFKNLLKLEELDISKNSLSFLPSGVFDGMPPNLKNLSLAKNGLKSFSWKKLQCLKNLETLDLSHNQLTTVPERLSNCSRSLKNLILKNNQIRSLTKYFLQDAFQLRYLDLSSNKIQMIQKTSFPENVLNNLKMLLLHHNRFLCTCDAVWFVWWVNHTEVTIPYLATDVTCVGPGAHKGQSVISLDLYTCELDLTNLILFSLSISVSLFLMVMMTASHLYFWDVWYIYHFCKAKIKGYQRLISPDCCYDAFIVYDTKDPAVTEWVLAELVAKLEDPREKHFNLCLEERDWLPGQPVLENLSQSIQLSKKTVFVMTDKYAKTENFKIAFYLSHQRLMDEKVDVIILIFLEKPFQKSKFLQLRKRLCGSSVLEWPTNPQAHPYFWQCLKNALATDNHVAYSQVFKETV
Procedure: as §4, §5
Activity of compounds: OD650 values were analyzed using GraphPad Prism software, and the compound dose-effect curves were fitted to calculate the EC50 values of the compounds.

[7] = probe Midazolam, substrate Midazolam, read-out: Relative inhibition rate (%) CYP3A4 (Midazolam)
[8] = probe Testosterone, substrate Testosterone, read-out: Relative inhibition rate (%) CYP3A4 (Testosterone)

SMILES | CC50 at 24 h [1] [µM] | CYP3A4 Induction fold relative to blank control [2] | CYP3A4 Induction percentage relative to positive control (%) [2] [%] | CYP2B6 Induction fold relative to blank control [3] | CYP2B6 Induction percentage relative to positive control (%) [3] [%] | CYP1A2 Induction fold relative to blank control [4] | inhibition at 10 µM [5, 7] [%] | inhibition at 10 µM [5, 8] [%] | EC50 [6] [µM]
C=CCCN(C)Cc1c[nH]c(=O)cc1-c1ccc2c(N[C@@](C)(CO)CCCC)nc(N)nc2c1 [Example 35] | > 100 | 1.3 | 0.9 | 0.4 | −5.6 | 0.4 | 23.9 | 11.5 | 68.6
CCCC[C@](C)(CO)Nc1nc(N)nc2cc(-c3cc(=O)[nH]cc3CN(C)CCOC)cnc12 [Example 21] | > 100 | 1.4 | 1.5 | 0.5 | −4.8 | 0.6 | 15.3 | 18 | 90.3
CCCC[C@](C)(CO)Nc1nc(N)nc2cc(-c3cc(=O)n(C)cc3CN3CCCCC3)ccc12 [Example 8] | 98.3 | 0.6 | −1.5 | 0.6 | −4.1 | 0.7 | 9.6 | 6.3 | > 100
CCCCN(C)Cc1c[nH]c(=O)cc1-c1cnc2c(N[C@@](C)(CO)CCCC)nc(N)nc2c1 [Example 28, (R)-4-(2-Amino-4-((1-hydroxy-2-methylhexan-2-yl)amino)pyrido[3,2-d]pyrimidin-7-yl)-5-((butyl(methyl)amino)methyl)pyridin-2(1H)-one] | > 100 | 2.0 | 2.0 | 0.9 | −0.7 | 0.8 | 31.1 | 17.9 | 29.5
